Experimental data reported in PubChem BioAssay AID248 (DTP/NCI, 2004).
Where “and” joins values, the source holds several entries; their conditions need not be identical. Equal values may be shown once. Inconclusive results and toxic doses are left out. Cut-off read from the data, not from the text of the source: active = T/C of 150% or more; inactive = T/C below 125%.

Tested on: L1210 leukemia ip in BDF1 mice, survival T/C
Test: NCI In Vivo Anticancer Drug Screen. Data for tumor model L1210 Leukemia (intraperitoneal) in B6D2F1 (BDF1) mice
Conditions: endpoint: mean survival time, higher = longer survival
Method in brief: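 Read-out is survival time, reported as the treated-group measurement over the vehicle-control measurement.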

[1] = dose: 100.0 mg/kg/injection, schedule: Q01DX009 (ip), vehicle: Klucel (hydroxypropylcellulose) (HPC)
[2] = dose: 200.0 mg/kg/injection, schedule: Q01DX009 (ip), vehicle: Klucel (hydroxypropylcellulose) (HPC)
[3] = dose: 400.0 mg/kg/injection, schedule: Q01DX009 (ip), vehicle: Klucel (hydroxypropylcellulose) (HPC)
[4] = dose: 100.0 mg/kg/injection, schedule: Q04DX002 (ip), vehicle: saline with Tween-80
[5] = dose: 200.0 mg/kg/injection, schedule: Q04DX002 (ip), vehicle: saline with Tween-80
[6] = dose: 100.0 mg/kg/injection, schedule: Q01DX001 (ip), vehicle: carboxymethylcellulose (CMC)
[7] = dose: 200.0 mg/kg/injection, schedule: Q01DX001 (ip), vehicle: carboxymethylcellulose (CMC)
[8] = dose: 400.0 mg/kg/injection, schedule: Q01DX001 (ip), vehicle: carboxymethylcellulose (CMC)
[9] = dose: 50.0 mg/kg/injection, schedule: Q01DX009 (ip), vehicle: Klucel (hydroxypropylcellulose) (HPC)
[10] = dose: 100.0 mg/kg/injection, schedule: Q04DX003 (ip), vehicle: Klucel (hydroxypropylcellulose) (HPC)
[11] = dose: 100.0 mg/kg/injection, schedule: Q01DX001 (ip), vehicle: saline
[12] = dose: 200.0 mg/kg/injection, schedule: Q01DX001 (ip), vehicle: saline
[13] = dose: 400.0 mg/kg/injection, schedule: Q01DX001 (ip), vehicle: saline
[14] = dose: 50.0 mg/kg/injection, schedule: Q04DX003 (ip), vehicle: Klucel (hydroxypropylcellulose) (HPC)
[15] = dose: 200.0 mg/kg/injection, schedule: Q04DX003 (ip), vehicle: Klucel (hydroxypropylcellulose) (HPC)
[16] = dose: 100.0 mg/kg/injection, schedule: Q01DX001 (ip), vehicle: saline with Tween-80
[17] = dose: 100.0 mg/kg/injection, schedule: Q01DX009 (ip), vehicle: saline with Tween-80
[18] = dose: 100.0 mg/kg/injection, schedule: Q04DX003 (ip), vehicle: saline with Tween-80
[19] = dose: 200.0 mg/kg/injection, schedule: Q01DX001 (ip), vehicle: saline with Tween-80
[20] = dose: 200.0 mg/kg/injection, schedule: Q01DX009 (ip), vehicle: saline with Tween-80
[21] = dose: 200.0 mg/kg/injection, schedule: Q04DX003 (ip), vehicle: saline with Tween-80
[22] = dose: 200.0 mg/kg/injection, schedule: Q01DX Z (ip), vehicle: methylcellulose (MC)
[23] = dose: 400.0 mg/kg/injection, schedule: Q04DX003 (ip), vehicle: Klucel (hydroxypropylcellulose) (HPC)

Measured: T/C

CN(C)c1ccc(/C=N/NC(=O)C(O)C(O)C(O)C(O)CO)cc1 (stereo unspecified)
inactive: [1] 97 % of control | [2] 96 % of control | [3] 102 % of control

CC(=O)NCC(O)C(O)C(/C=N/Nc1ccccc1)=N/Nc1ccccc1 (stereo unspecified)
inactive: dose: 50.0 mg/kg/injection, schedule: Q04DX002 (ip), vehicle: saline with Tween-80 91 % of control | [4] 87 % of control | [5] 95 % of control

C/C=C\C1CC2CC(C1C)C2(C)C (stereo unspecified)
inactive: dose: 50.0 mg/kg/injection, schedule: Q01DX009 (ip), vehicle: saline 102 % of control | dose: 100.0 mg/kg/injection, schedule: Q01DX009 (ip), vehicle: saline 97 % of control | dose: 200.0 mg/kg/injection, schedule: Q01DX009 (ip), vehicle: saline 105 % of control

S=c1[nH]ccn1-c1ccccc1
inactive: [6] 103 % of control | [7] 110 % of control | [8] 101 % of control

Clc1c(CBr)c(Cl)c(CBr)c(Cl)c1CBr
inactive: dose: 25.0 mg/kg/injection, schedule: Q01DX009 (ip), vehicle: Klucel (hydroxypropylcellulose) (HPC) 90 % of control | [9] 87 % of control | [10] 88 % of control

O=C(O)C(CS(=O)(=O)O)Nc1ncnc2nc[nH]c12 (stereo unspecified)
inactive: [11] 93 % of control | [12] 98 % of control | [13] 98 % of control

COC(C)=C1c2ccccc2-c2ccccc21
inactive: dose: 100.0 mg/kg/injection, schedule: Q01DX001 (ip), vehicle: Klucel (hydroxypropylcellulose) (HPC) 98 % of control | dose: 200.0 mg/kg/injection, schedule: Q01DX001 (ip), vehicle: Klucel (hydroxypropylcellulose) (HPC) 99 % of control | dose: 400.0 mg/kg/injection, schedule: Q01DX001 (ip), vehicle: Klucel (hydroxypropylcellulose) (HPC) 94 % of control

Fc1c(F)c(F)c(Oc2c(F)c(F)c3c(c2F)C2C=CC3O2)c(F)c1F (stereo unspecified)
inactive: [14] 95 % of control | [10] 93 % of control | [15] 93 % of control

CCOc1ccc(Br)cc1
inactive: [16] 91 % of control | [17] 95 % of control and 105 % of control | [4] 97 % of control and 101 % of control | [18] 105 % of control | [19] 87 % of control | [20] 105 % of control and 92 % of control | [5] 119 % of control and 92 % of control | [21] 94 % of control | dose: 400.0 mg/kg/injection, schedule: Q01DX001 (ip), vehicle: saline with Tween-80 89 % of control | dose: 400.0 mg/kg/injection, schedule: Q04DX002 (ip), vehicle: saline with Tween-80 99 % of control and 91 % of control | dose: 400.0 mg/kg/injection, schedule: Q04DX003 (ip), vehicle: saline with Tween-80 101 % of control

C#CC(C)(O)CC (stereo unspecified)
inactive: [11] 100 % of control | [12] 100 % of control | [13] 103 % of control

Cc1sc2ccc3ccccc3c2[n+]1C
inactive: [14] 105 % of control | dose: 75.0 mg/kg/injection, schedule: Q01DX001 (ip), vehicle: saline 103 % of control | [10] 109 % of control | dose: 150.0 mg/kg/injection, schedule: Q01DX001 (ip), vehicle: saline 111 % of control

CCCCSc1n[nH]c(=O)[nH]c1=S
inactive: [11] 91 % of control | [12] 96 % of control

CO[C@@H]1[C@@H](OC2OC(C)C(OC3CC(C)(O)C(OC(=O)CC(C)C)C(C)O3)C(N(C)C)C2O)[C@@H](CC=O)C[C@@H](C)C(=O)/C=C/C2O[C@H]2C[C@@H](C)OC(=O)C[C@H]1OC(C)=O (stereo partly specified)
inactive: dose: 50.0 mg/kg/injection, schedule: Q01DX Z (ip), vehicle: other 103 % of control | dose: 100.0 mg/kg/injection, schedule: Q01DX001 (ip), vehicle: water 108 % of control | dose: 100.0 mg/kg/injection, schedule: Q01DX015 (ip), vehicle: water 102 % of control | dose: 100.0 mg/kg/injection, schedule: Q01DX Z (ip), vehicle: other 110 % of control | dose: 100.0 mg/kg/injection, schedule: Q#A X030 (ip), vehicle: water 108 % of control and 92 % of control | dose: 150.0 mg/kg/injection, schedule: Q01DX Z (ip), vehicle: other 105 % of control | dose: 150.0 mg/kg/injection, schedule: Q#A X030 (ip), vehicle: water 97 % of control | dose: 200.0 mg/kg/injection, schedule: Q01DX001 (ip), vehicle: water 106 % of control | dose: 200.0 mg/kg/injection, schedule: Q01DX015 (ip), vehicle: water 118 % of control | [22] 118 % of control | dose: 200.0 mg/kg/injection, schedule: Q01DX Z (ip), vehicle: other 105 % of control | dose: 200.0 mg/kg/injection, schedule: Q#A X030 (ip), vehicle: water 118 % of control | dose: 250.0 mg/kg/injection, schedule: Q01DX Z (ip), vehicle: methylcellulose (MC) 118 % of control | dose: 250.0 mg/kg/injection, schedule: Q01DX Z (ip), vehicle: other 115 % of control | dose: 300.0 mg/kg/injection, schedule: Q01DX015 (ip), vehicle: water 101 % of control and 118 % of control | dose: 300.0 mg/kg/injection, schedule: Q01DX Z (ip), vehicle: methylcellulose (MC) 116 % of control | dose: 350.0 mg/kg/injection, schedule: Q01DX Z (ip), vehicle: methylcellulose (MC) 116 % of control | dose: 400.0 mg/kg/injection, schedule: Q01DX001 (ip), vehicle: water 101 % of control | dose: 400.0 mg/kg/injection, schedule: Q01DX015 (ip), vehicle: water 87 % of control | dose: 600.0 mg/kg/injection, schedule: Q01DX001 (ip), vehicle: water 110 % of control

Cc1cc2c(=S)nc(N)[nH]c2nc1C
inactive: dose: 100.0 mg/kg/injection, schedule: Q01DX Z (ip), vehicle: methylcellulose (MC) 105 % of control | [22] 103 % of control

CCO/C=C1\SC(=S)N(c2ccc(OCC)cc2)C1=O
inactive: [1] 98 % of control | [10] 98 % of control | [2] 95 % of control | [15] 98 % of control | [3] 98 % of control | [23] 97 % of control

CCCNC(=S)Nc1ccccc1
inactive: dose: 75.0 mg/kg/injection, schedule: Q01DX001 (ip), vehicle: other 101 % of control | dose: 150.0 mg/kg/injection, schedule: Q01DX001 (ip), vehicle: other 107 % of control

Nc1ncnc2sc3c(c12)CCc1ccccc1-3
inactive: [9] 92 % of control | [1] 98 % of control | [2] 95 % of control

Cc1ncccc1CCO
inactive: [11] 96 % of control | [12] 100 % of control | [13] 102 % of control

O=C(O)CNC(=O)N1CCCC1
inactive: dose: 100.0 mg/kg/injection, schedule: Q04DX002 (ip), vehicle: saline 90 % of control | dose: 200.0 mg/kg/injection, schedule: Q04DX002 (ip), vehicle: saline 96 % of control | dose: 400.0 mg/kg/injection, schedule: Q04DX002 (ip), vehicle: saline 104 % of control

CC(=O)Nc1ccc(NC(=O)Nc2ccc(C)cc2[N+](=O)[O-])cc1
inactive: [10] 92 % of control | [15] 86 % of control | [23] 94 % of control

COCC(=O)Nc1ccc(Cl)c(Cl)c1
inactive: [6] 100 % of control | [7] 92 % of control | [8] 97 % of control

Nc1nc(=S)[nH][nH]1
inactive: dose: 50.0 mg/kg/injection, schedule: Q01DX009 (ip), vehicle: saline with Tween-80 105 % of control | [16] 104 % of control | [17] 117 % of control | [18] 104 % of control | [19] 105 % of control | [20] 101 % of control | [21] 98 % of control
